Data reported in BindingDB's records for patent WO2025054369 (NICO Therapeutics, 2025).
pIC50: −log10 of the molar value.

Target: T1, NAD(+) hydrolase SARM1 (Homo sapiens, UniProt Q6SZW1)
T1 sequence (Q6SZW1 whole entry): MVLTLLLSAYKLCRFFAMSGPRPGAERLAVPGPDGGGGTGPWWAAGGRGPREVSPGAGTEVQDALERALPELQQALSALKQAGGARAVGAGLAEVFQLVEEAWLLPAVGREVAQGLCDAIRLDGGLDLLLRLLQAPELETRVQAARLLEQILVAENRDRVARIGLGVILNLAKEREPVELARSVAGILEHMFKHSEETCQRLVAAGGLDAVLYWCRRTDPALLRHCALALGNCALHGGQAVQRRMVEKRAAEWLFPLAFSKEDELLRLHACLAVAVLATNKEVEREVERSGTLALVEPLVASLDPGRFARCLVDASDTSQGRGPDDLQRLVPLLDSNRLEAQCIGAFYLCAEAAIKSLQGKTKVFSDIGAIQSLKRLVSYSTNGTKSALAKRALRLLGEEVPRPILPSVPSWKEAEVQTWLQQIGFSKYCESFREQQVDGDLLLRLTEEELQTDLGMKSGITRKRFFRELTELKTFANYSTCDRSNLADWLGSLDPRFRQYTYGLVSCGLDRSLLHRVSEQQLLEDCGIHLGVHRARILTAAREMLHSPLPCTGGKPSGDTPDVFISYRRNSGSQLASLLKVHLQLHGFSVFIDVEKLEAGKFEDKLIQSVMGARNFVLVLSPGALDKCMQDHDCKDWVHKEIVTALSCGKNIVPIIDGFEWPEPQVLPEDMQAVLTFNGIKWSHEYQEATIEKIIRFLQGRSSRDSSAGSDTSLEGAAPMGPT
Test: Biochemical Assay of the Compounds
Procedure: Preparation of full-length SARM1 (FL-SARM1) lysate: HEK293T cells (ATCC: CRL-3216) were grown on 150 mm TC-treated dishes to 80-90% confluency in complete DMEM (DMEM (Thermo Fisher: 11965175) supplemented with 10% HI-FBS (VWR: 10802-772), 1x Pen/Strep (Thermo Fisher: 15140122), 1x NEAA (Thermo Fisher: 1140050), 1x glutamax (Thermo Fisher: 35050061), and 1 mM sodium pyruvate (Thermo Fisher: 11360070)) at 37 °C and 5% CO2. One hour prior to transfection, the media was replaced with fresh, 37 °C complete DMEM (20 mL per one 150 mm dish) supplemented with additional 10mM glucose (Alfa Aesar AAJ60067EQE). Per one 150 mm dish, 30 µg FL-SARM1 (SEQ. ID.1; cloned in-house) plasmid was dissolved in 1 mL DMEM at ambient temperature and were mixed by inverting the tube 8-10 times.90 µL of GenJet™ in vitro DNA transfection reagent (Ver2) was dissolved in 1 mL DMEM at ambient temperature and were mixed by inverting the tube 8-10 times. The plasmid and transfection agent solutions were combined, mixed by 8-10 inversions and incubated for 10 minutes at ambient temperature.2 mL of this transfection mixture was added to each dish containing HEK293T cells as prepared above followed by a gentle mixing of 4-5 horizontal rotations. The dishes were incubated at 37 °C and 5% CO2 for 24 h. The dishes were removed from the incubator, the medium was aspirated and the cells were scraped off using cell scrapers in ice-cold 1x PBS (5 mL/dish, Thermo Fisher Scientific 10010023). The collected cells were centrifuged at 300 g for 5 minutes at 4 °C. The supernatant was aspirated and the pellet was frozen at -80 °C until needed. The cell pellet from 30 dishes was dissolved in 30 mL 1x PBS supplemented with 4 tablets of Complete, Mini EDTA-free protease inhibitor cocktail at 4 °C. This mixture was sonicated on ice for 10 minutes at 50% amplitude with a 1 second on/1 second off interval using a Model 120 sonicator (Thermo Fisher Scientific, FB120110). The lysate was centrifuged at 16000 g for 10 minutes at 4 °C.

pIC50	SMILES
> 6.00	Cc1noc(C23CC(C)CC(C2)N3C(=O)Nc2ccc(Cl)c(C3CCC3)c2)n1 (configuration not stated) [WO2025054369, Example 80]
5.26	N#C[C@H]1CC[C@H]1c1cc(NC(=O)N2C3CCC2CC(C(F)(F)F)C3)ccc1Cl (relative stereo; form 2) [WO2025054369, Example 45]
> 6.00	N#C[C@H]1CC[C@H]1c1cc(NC(=O)N2C3CC2CC(C(F)(F)F)C3)ccc1Cl (some centres not stated) [WO2025054369, Example 32]
> 6.00	Cc1nnc(C23CC(C)CC(C2)N3C(=O)Nc2ccc(Cl)c([C@H]3CC[C@H]3C#N)c2)o1 (some centres not stated) [WO2025054369, Example 4]
> 6.00	CC1CC2CC(C1)N2C(=O)Nc1ccc(Cl)c(N2CC[C@@H]2C#N)c1 (some centres not stated) [WO2025054369, Example 71]
> 6.00	C[C@@H]1C[C@@H]2C[C@H](C1)N2C(=O)Nc1ccc(Cl)c(N2CCC2)c1 [WO2025054369, Example 95]
> 6.00	CC1CC2CC(C1)N2C(=O)Nc1ccc(Cl)c([C@H]2CCC[C@H]2C#N)c1 (some centres not stated) [WO2025054369, Example 61]
> 6.00	CC1CC2CC(C1)N2C(=O)Nc1ccc(Cl)c(C2CC(C)(OCCO)C2)c1 (configuration not stated) [WO2025054369, Example 74]
> 6.00	CC1CC2CC(C1)N2C(=O)Nc1ccc(Cl)c([C@H]2CC[C@@H]2C(F)F)c1 (some centres not stated) [WO2025054369, Example 50]
5.26	C[C@@]1(O)CC[C@@H](c2cc(NC(=O)N3C4CC3CC(C(F)(F)F)C4)ccc2Cl)C1 (some centres not stated) [WO2025054369, Example 65]
> 6.00	CC1CC2CC(C1)N2C(=O)Nc1ccc(Cl)c([C@H]2C[C@@H](O)C2)c1 (some centres not stated) [WO2025054369, Example 37]
> 6.00	CC1CC2CC(C1)N2C(=O)Nc1cc(F)c(Cl)c([C@H]2CC[C@H]2C#N)c1 (some centres not stated) [WO2025054369, Example 35]
> 6.00	CC1CC2CC(C1)N2C(=O)Nc1ccc(Cl)c(C23CC(C2)C3)c1 (configuration not stated) [WO2025054369, Example 20]
5.26	C[C@@H]1C[C@@H]2C[C@H](C1)N2C(=O)Nc1ccc(Cl)c(N2CCOC2=O)c1 [WO2025054369, Example 94]
> 6.00	CC1CC2CC(C1)N2C(=O)Nc1ccc(Cl)c([C@H]2C[C@H](F)C2)c1 (some centres not stated) [WO2025054369, Example 48]
> 6.00	Cc1noc(C23CC(C)CC(C2)N3C(=O)Nc2ccc(Cl)c(C3CCCC3)c2)n1 (configuration not stated) [WO2025054369, Example 82]
> 6.00	CC1CC2CC(C1)N2C(=O)Nc1ccc(Cl)c(N2CCC2CF)c1 (configuration not stated) [WO2025054369, Example 84]
> 6.00	CC1CC2CC(C1)N2C(=O)Nc1ccc(Cl)c([C@@H]2CC[C@@H]2n2nccn2)c1 (relative stereo) [WO2025054369, Example 30]
< 5.00	CC1CC2CC(C1)N2C(=O)Nc1ccc(Cl)c([C@H]2CC[C@@]2(C)O)c1 (some centres not stated) [WO2025054369, Example 47]
5.26	Cc1ccc(NC(=O)N2C3CCCC2C3)cc1CC1CC1 [WO2025054369, Example 13]
5.26	Cc1ccc(NC(=O)N2C3CCCC2C3)cc1C1CC1 [WO2025054369, Example 22]

pIC50	SMILES
5.26	CC1CC2CC(C1)N2C(=O)Nc1ccc(Cl)c(C(C)(C)O)c1 (configuration not stated) [WO2025054369, Example 81]
> 6.00	CC1CC2CC(C1)N2C(=O)Nc1ccc(Cl)c([C@H]2C[C@@H](F)C2)c1 (some centres not stated) [WO2025054369, Example 49]
> 6.00	O=C(Nc1ccc(Cl)c(N2CC(O)C2)c1)N1C2CC1CC(C(F)(F)F)C2 (configuration not stated) [WO2025054369, Example 89]
> 6.00	C[C@]1(O)CC[C@@H](c2cc(NC(=O)N3C4CC3CC(C(F)(F)F)C4)ccc2Cl)C1 (some centres not stated) [WO2025054369, Example 66]
> 6.00	CC1CC2CC(C1)N2C(=O)Nc1cc(F)c(Cl)c([C@@H]2CC[C@@H]2C#N)c1 (some centres not stated) [WO2025054369, Example 34]
> 6.00	CC1CC2CC(C1)N2C(=O)Nc1ccc(Cl)c(C2CCC2)c1 (configuration not stated) [WO2025054369, Example 18]
> 6.00	Cc1nnc(C23CC(C)CC(C2)N3C(=O)Nc2ccc(C(F)(F)F)c(C3CC(F)(F)C3)c2)o1 (configuration not stated) [WO2025054369, Example 25]
5.26	CC1CC2CC(C1)N2C(=O)Nc1ccc(Cl)c(N2CC(OCCO)C2)c1 (configuration not stated) [WO2025054369, Example 85]
> 6.00	Cc1nnc(C23CC(C)CC(C2)N3C(=O)Nc2ccc(Cl)c(C3CCC3)c2)o1 (configuration not stated) [WO2025054369, Example 1]
> 6.00	Cc1ccc(NC(=O)N2C3CC(C)CC2C3)cc1[C@H]1CC[C@H]1C#N (some centres not stated) [WO2025054369, Example 8]
5.26	CC1(O)CC(c2cc(NC(=O)N3C4CC3CC(C(F)(F)F)C4)ccc2CN)C1 (configuration not stated) [WO2025054369, Example 73]
> 6.00	CC1CC2CC(C1)N2C(=O)Nc1ccc(Cl)c([C@H]2C[C@H](O)C2)c1 (some centres not stated) [WO2025054369, Example 36]
> 6.00	CC1CC2CC(C1)N2C(=O)Nc1ccc(Cl)c([C@@H]2CC[C@]2(C)O)c1 (some centres not stated) [WO2025054369, Example 46]
> 6.00	CC1CC2CC(C1)N2C(=O)Nc1ccc(Cl)c(C2CC(C)(O)C2)c1 (configuration not stated) [WO2025054369, Example 38]
> 6.00	O=C(Nc1ccc(Cl)c([C@H]2C[C@H](O)C2)c1)N1C2CC1CC(C(F)(F)F)C2 (some centres not stated) [WO2025054369, Example 42]
5.26	Cc1ccc(NC(=O)N2C3CCCC2C3)cc1C1CN(C)C1 [WO2025054369, Example 15]
> 6.00	Cc1nnc([C@@]23C[C@@H](C)C[C@@H](C2)N3C(=O)Nc2ccc(Cl)c(N3CC(O)C3)c2)o1 [WO2025054369, Example 70]
> 6.00	CC1CC2CC(C1)N2C(=O)Nc1ccc(Cl)c(C2(F)CCC2)c1 (configuration not stated) [WO2025054369, Example 19]
> 6.00	Cc1nnc([C@@]23C[C@@H](C[C@@H](C(F)(F)F)C2)N3C(=O)Nc2ccc(Cl)c(C3CCC3)c2)o1 [WO2025054369, Example 68]
> 6.00	C[C@@H]1C[C@@H]2C[C@H](C1)N2C(=O)Nc1ccc(Cl)c(N2CC(C#N)C2)c1 [WO2025054369, Example 91]
> 6.00	Cc1nnc(C23CC(C)CC(C2)N3C(=O)Nc2ccc(Cl)c([C@@H]3CC[C@@H]3C#N)c2)o1 (some centres not stated) [WO2025054369, Example 3]
